Reference: patent US20140336187A1, “METHODS FOR TREATING LEISHMANIASIS” (HOWARD UNIVERSITY, priority 2011, published 2014)
Values joined by “and” are separate entries in the source; they are usually repeats but may differ in a detail not shown here. Equal values may be shown once. Read-outs that look alike come from different tables or passages of the source.

Assays:
[1] = tested on: L. donovani promastigotes; experiment: Dose and time-dependent inhibitory effect on L. donovani promastigotes (2, 4, 6, 24 hours exposure); assay type: cell-based, Leishmania donovani
Procedure: The Leishmanicidal properties of fifteen naphthoquinone compounds (FIG. 1) on L. donovani promastigotes proliferation were assessed by the resazurin cell viability assay. Promastigotes from axenic culture were harvested during the exponential phase of growth (at least 5-day old culture), incubated at a concentration of 2×10^5 cells/200 μl with and without dilutions of compounds in 96-well microtitre plates. Dilutions of compounds covering 0.03 μM to 44 μM were prepared. […] 20 μl Alamar Blue (12.5 mg resazurin dissolved in 100 ml distilled water (Sigma #R7017)) (Mikes and Steverding, 2000) were added to each well and plates were incubated for another 2 hrs. […] Decrease in fluorescence (inhibition), were expressed as percentage of the fluorescence of control cultures and were plotted against the concentrations of compounds. The IC50 values were calculated from the sigmoidal inhibition curves.
A time and dose-dependent inhibitory effect of all 15 imido-substituted naphthoquinone compounds was assessed on their activity on promastigotes of L. donovani. Promastigotes were plated in 96-well plates and incubated in different concentrations of each compound (0.03 to 44 μM), incubated for two hours and viabilities assayed by the resazurin assay. A two hour exposure was assessed by calculation of IC50 values of each compound. Values are means±S.E. (Standard Error).
A time and dose-dependent inhibitory effect of all 15 imido-substituted naphthoquinone compounds was assessed on their activity on promastigotes of L. donovani. Promastigotes were plated in 96-well plates and incubated in different concentrations of each compound (0.03 to 44 μM), incubated for four hours and cell viabilities assayed by the resazurin assay. A four hour exposure was assessed by calculation of IC50 values of each compound. Values are means±S.E. (Standard Error).
Promastigotes were plated in 96-well plates and incubated in different concentrations of each compound (0.03 to 44 μM), incubated for six hours and cell viabilities assayed by the resazurin assay. A six hour exposure was assessed by calculation of IC50 values of each compound. Values are means±S.E. (Standard error).
A time and dose-dependent inhibitory effect of all 15 imido-substituted naphthoquinone compounds was assessed on their activity on promastigotes of L. donovani. Promastigotes were plated in 96-well plates and incubated in different concentrations of each compound (0.03 to 44 μM), incubated for twenty four hours and cell viabilities assayed by the resazurin assay. A twenty four hour exposure was assessed by calculation of IC50 values of each compound. Values are means±S.E. (Standard Error).

[2] = tested on: NIH 3T3 BALB/c mouse fibroblast cell line; experiment: Cytotoxic assessment on NIH 3T3 BALB/c mouse fibroblasts (resazurin assay); conditions: for IC50: read-out: IC50 (μM) Fibroblasts, NIH 3T3 BALB/c mouse fibroblasts, 48 hrs, resazurin assay, means ± S.E.; for cytotoxicity compared with Amphotericin B: Balb/C 3T3 mouse fibroblast cell line, FIG. 2
Procedure: Fibroblasts cells (4×10^4 cells/nil and adding 100 μl per well) were incubated with different concentrations of the naphthoquinone compounds (FIGS. 1) (3, 7, 13, 29, 33, and 44 μM) for 48 hrs after which viability of live fibroblast cells was determined by the Resazurin Method using a microplate reader (Bio-Tek Instruments EL311).
NIH 3T3 mouse fibroblasts were maintained in Roswell Park Memorial Institute (RPMI) medium supplemented with 10% Fetal calf serum, 50 units/ml penicillin, 50 units/ml streptomycin B in a humidified incubator at 37° C. in the presence of 5% CO2 (Scala et al., 2010).
Assays were performed to assess the cytotoxicity of these compounds in 96-well microtiter plates, with each well containing 100 μl of RPMI medium supplemented with 10% bovine calf scrum with 50 U/ml Pen-Strep. The cells were plated at a concentration of 4×10^3 cells/well (4×10^4 cells/ml). Fibroblast cells were then incubated with compounds for 48 hrs and inspected under an inverted microscope to assure growth of the controls and sterile conditions. 10 μl of resazurin solution (12.5 mg resazurin dissolved in 100 nil distilled water) were added to each well and the plates were incubated for another 2 hrs. The plates were read with a microplate reader at 570 nm. Experiments were done at least 3 times in triplicates (Scala et al., 2010).
Cell viability was determined using Resazurin Assay. The IC50 values were calculated and expressed as means±S.E (standard error).

[3] = In vivo cytotoxic assessment: serum AST and ALT in VL BALB/c mice; conditions: compared with uninfected negative controls
Procedure: Serum was collected from infected, treated and non-treated mice 14 days post infection and 7 days from the start of treatment for the determination of alanine amino transferase (ALT) and aspartate amino transferase (AST) activities. Assays were done in 96 well microtiter plates and samples and standards were run in duplicates or triplicates. For ALT, 2 μl of serum from infected treated and untreated samples were incubated with 10 μl of ALT substrate solution (1.78 g DL-alanine and 30 mg α-keto glutarate in 20 ml of phosphate buffer containing 1.25 ml of 0.4 M NaOH. Volume made up to 100 ml with buffer, pH 7.4. 1 ml of chloroform as preservative. Stable for 2 months at 2-8° C.), mixed and incubated at 37° C. for 30 minutes. 10 μl of dinitrophenolhydrazine (2,4 DNPH) was added. Blanks (ddH2O) and negative (not infected) samples were then added. Samples were mixed and incubated at room temperature for 20 minutes. 100 μl of 0.4 M NaOH was added, mixed and incubated at room temperature for 5 min. Plates were read at 490 nm. For AST, 2 μl of test and positive (infected, treated and untreated) samples were incubated with 10 μl of AST substrate solution (2.66 g DL-aspartic acid and 30 mg α-keto glutarate in 20.5 ml of 1 M NaOH pH 7.4, volume made up to 100 ml with phosphate buffer. 1 ml of chloroform was added as preservative. This was stable for 2 months at 2-8° C.) and incubated at 37° C. for 1 hr. 10 μl of 2,4 DNPH added and mixed. 2 μl of negative controls (not infected) and blanks (ddH2O) added and mixed and then incubated at room temperature for 20 min. 100 μl of 0.4 M NaOH was added, mixed and incubated at room temperature for 5 min and read at 490 nm. The enzyme activity was determined from the standard curve drawn using sodium pyruvate as standard solution (2 mM/ml pyruvate). Enzyme activities were expressed as units/ml. Reference ranges by this method are: AST; 0.096-3.8 U/ml and ALT; 0.112-3.0 U/ml. (Mallick et al., 2003; Reitman and Frankel, 1957).
In order to assess in vivo cytotoxicity of four naphthoquinone compounds (IMDNQ4, IMD8, IMDNQ 10, and IMDNQ 15), serum aspartate aminotransferase (AST), and alanine aminotransferase (ALT) levels were analyzed and compared to those in untreated controls. The assay range for AST is 0.096-3.8 U/ml (mean assay range is 1.95 U/ml) and for ALT assay, 0.112-3.0 U/ml (mean assay range is 1.56 U/ml). The results are expressed as percent increase or decrease in AST or ALT levels.

L. donovani amastigotes = experiment: Antileishmanial activity on L. donovani amastigotes (resazurin assay); assay type: cell-based, Leishmania donovani; conditions: for IC50: read-out: IC50 (μM) Amastigotes; for SI Values Amastigotes: SI = IC50 (mouse fibroblast) ÷ IC50 (amastigotes)
Procedure: Amastigotes were grown in MAA/20 medium (Amastigote medium consisted of: M199 medium supplemented with 0.5% Tryptone broth, 0.01 mM bathocuproinedisulfonic acid, 0.108 mM L-Cysteine, 15 mM D-glucose, 0.685 mM L-glutamine, and 0.025 mM Hemin and 20% fetal calf serum (FCS) at a pH of 5.5).
Amastigotes were plated at a concentration of 2×10^5 cells/[…] 24 hrs before treatment with various compounds. Amastigotes were treated with dilutions of compounds in 96-well microtitre plates. Dilutions of compounds ranging from 0.03 μM to 44 μM were prepared and added to amastigotes. Amastigotes were exposed to compounds for 48 hrs and were incubated at 37° C. […] After the incubation period, 20 μl Alamar Blue (12.5 mg resazurin dissolved in 100 ml distilled water) (Mikes and Steverding, 2000) were added to each well and plates were incubated for another 2 hrs. […] Decrease of fluorescence (inhibition) was expressed as percentage of the fluorescence of control cultures and was plotted against the concentrations of compounds. The IC50 values were calculated from the sigmoidal inhibition curves. Amphotericin B was used as a reference drug.

[4] = Leishmania donovani, 2 h, read-out: Antileishmanial Activity IC50 (μM) 2 hours
[5] = Leishmania donovani, 4 h, read-out: Antileishmanial Activity IC50 (μM) 4 hours
[6] = Leishmania donovani, 6 h, read-out: Antileishmanial Activity IC50 (μM) 6 hours
[7] = Leishmania donovani, 24 h, read-out: Antileishmanial Activity IC50 (μM) 24 hours

SMILES | IC50 ([1]; promastigotes, 6 hours exposure, means ± S.E., read-out: Antileishmanial Activity IC50 (μM) 6 hours) | IC50 ([1]; promastigotes, 24 hours exposure, means ± S.E., read-out: Antileishmanial Activity IC50 (μM) 24 hours) | IC50 ([1]; read-out: Antileishmanial Activity IC50 (μM) 2 hours, promastigotes, 2 hours exposure, means ± S.E.) | IC50 ([1]; read-out: Antileishmanial Activity IC50 (μM) 4 hours, promastigotes, 4 hours exposure, means ± S.E.) | IC50 [2] | Serum ALT Increase (%) ([3]; 20 mg/kg) | Serum AST Increase (%) ([3]; 20 mg/kg) | IC50 (L. donovani amastigotes; L. donovani amastigotes, 48 hrs exposure, resazurin assay, means ± S.E.) | IC50 [1, 4] | IC50 [1, 5] | IC50 [1, 6] | IC50 [1, 7] | cytotoxicity compared with Amphotericin B [2] | Serum ALT Increase (%) ([3]; 5 mg/kg) | Serum AST Increase (%) ([3]; 5 mg/kg) | Serum ALT Increase (%) ([3]; 50 mg/kg) | Serum AST Increase (%) ([3]; 50 mg/kg) | IC50 (L. donovani amastigotes; Leishmania donovani, 48 h) | SI Values Amastigotes (L. donovani amastigotes) | melting point
C[C@@H]1[C@H](O)[C@@H](C)/C=C/C=C/C=C/C=C/C=C/C=C/C=C/[C@H](O[C@@H]2O[C@H](C)[C@@H](O)[C@H](N)[C@@H]2O)C[C@@H]2O[C@](O)(C[C@@H](O)C[C@@H](O)[C@H](O)CC[C@@H](O)C[C@@H](O)CC(=O)O[C@H]1C)C[C@H](O)[C@H]2C(=O)O [Am. B., Amphotericin B, reference compound] | 52 ± 12.2 µM | 4.1 ± 0.4 µM | 3.09 ± 2 µM | 4.49 ± 0.3 µM | 1.18 µM | 100% | 88.05% | 22.3 µM |  |  |  |  |  |  |  |  |  |  |  | 
NC1=C(Br)C(=O)c2ccccc2C1=O [IMD8, 2-Amino-3-bromo-1,4-naphthoquinone] |  |  |  |  |  | 100% | 87.48% and 85.17% |  | 0.021 ± 0.001 µM | 64.2 ± 11.8 µM | 23100 µM | 12 ± 0.8 µM | far less cytotoxic than Amphotericin B | 100% | 82.69% | 100% | 85.65% and 82.69% | 2.07 µM | 6858.62±3975.5 and 6858.62 | 
O=C1C(Cl)=C(N(C(=O)c2cccc(Cl)c2)C(=O)c2cccc(Cl)c2)C(=O)c2ccccc21 [IMDNQ4, 3-Chloro-N-(3-chlorobenzoyl)-N-(3-chloro-1,4-dioxo-1,4-dihydronaphthalen-2-yl)-benzamide] |  |  |  |  | 168 µM | 100% | 87.48% |  | 3.52 ± 3.6 µM | 21.5 ± 9.6 µM | 4.11 ± 6.3 µM | 3.96 ± 1.3 µM | far less cytotoxic than Amphotericin B | 100% | 87.40% | 100% | 85.65% | 1.19 µM | 141.26±56.8 and 141.26 | 258 to 260 °C
CCCC(=O)N(C(=O)CCC)C1=C(Cl)C(=O)c2ccccc2C1=O [IMDNQ15] |  |  |  |  | 2.94 µM | 100% | 90.34% |  | 8.6 ± 0.01 µM |  | 116.35 ± 0.07 µM | 3.96 µM |  | 100% | 87.95% | 100% | 91.91% | 18.9 µM | 0.16±0.09 and 0.16 | 
